Test results reported in ChEMBL document CHEMBL6078647 (J Med Chem, 2024).
Activity calls are given as the source filed them. The rule behind the calls is not given here. Square brackets hold non-standard residues; d marks the D form. Peptide text beside a SMILES is read from it. * marks the point of attachment. ξ: configuration not given here. X1 = C[N+]1=C(/C=C/C=C2\N(CCCCCC(=O)*)c3ccccc3C2(C)C)C(C)(C)c2ccccc21; PEG2 = NCCOCCOCCC(=O)O; ξD = NC(CC(=O)O)C(=O)O

Assays:
[1] = Fluorescence property of compound in HEPES buffer assessed as quantum yield; assay type: physicochemical
Cerebral artery [2] = experiment: Vaso-constriction activity in male wistar rat middle cerebral artery assessed as arterial contraction at 10 nM; assay type: functional, tissue-based
Cerebral artery [3] = experiment: Vaso-constriction activity in male wistar rat middle cerebral artery assessed as arterial contraction at 1 uM; assay type: functional, tissue-based
[4] = molecular target: T1, Type-1 angiotensin II receptor (Homo sapiens) (UniProt P30556); experiment: Binding affinity to human GFP-tagged AT1R (unknown origin) extracted from HEK293 cell membrane assessed as colocalization of AT1R in endocytic vesicles at 100 nM incubated for 30 mins by epifluorescence microscopic analysis; assay type: cell membranes
T1 sequence (whole entry): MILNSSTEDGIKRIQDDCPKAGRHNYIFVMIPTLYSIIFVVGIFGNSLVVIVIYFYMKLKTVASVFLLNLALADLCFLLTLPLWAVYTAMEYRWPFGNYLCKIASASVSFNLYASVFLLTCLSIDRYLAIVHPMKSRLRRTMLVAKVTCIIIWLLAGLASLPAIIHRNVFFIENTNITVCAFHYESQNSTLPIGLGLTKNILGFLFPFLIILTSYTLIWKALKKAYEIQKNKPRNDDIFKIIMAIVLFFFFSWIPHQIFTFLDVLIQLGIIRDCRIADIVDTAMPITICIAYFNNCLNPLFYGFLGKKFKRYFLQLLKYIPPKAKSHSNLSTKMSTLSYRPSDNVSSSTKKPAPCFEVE

[5] = molecular target: T2, Type-2 angiotensin II receptor (Homo sapiens) (UniProt P50052); experiment: Binding affinity to human GFP-tagged AT2R extracted from HEK293 cell membrane assessed as colocalization of AT2R in plasma membrane at 100 nM incubated for 30 mins by epifluorescence microscopic analysis; assay type: cell membranes
T2 sequence (whole entry): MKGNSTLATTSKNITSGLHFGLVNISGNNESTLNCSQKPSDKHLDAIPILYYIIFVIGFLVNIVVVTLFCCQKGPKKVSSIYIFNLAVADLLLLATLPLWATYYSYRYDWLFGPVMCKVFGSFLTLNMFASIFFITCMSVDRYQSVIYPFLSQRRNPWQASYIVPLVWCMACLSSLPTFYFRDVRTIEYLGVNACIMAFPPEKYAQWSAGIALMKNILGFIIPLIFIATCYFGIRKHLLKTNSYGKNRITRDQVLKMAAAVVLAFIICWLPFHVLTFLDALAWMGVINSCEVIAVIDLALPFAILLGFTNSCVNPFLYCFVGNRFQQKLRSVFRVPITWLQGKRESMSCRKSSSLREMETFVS

[6] = molecular target: T3, Type-2 angiotensin II receptor (Homo sapiens, UniProt P50052); experiment: Binding affinity to human AT2R extracted from HEK293T cell membrane assessed as inhibition constant in presence of [125I][Sar1 Ile8]-angiotensin II by competitive radioligand binding assay; assay type: cell membranes
T3 sequence (P50052 whole entry): T2 sequence (whole entry)

[7] = molecular target: T4, Type-1 angiotensin II receptor (Homo sapiens, UniProt P30556); experiment: Binding affinity to human AT1R extracted from HEK293T cell membrane assessed as inhibition constant in presence of [125I][Sar1 Ile8]-angiotensin II by competitive radioligand binding assay; assay type: cell membranes
T4 sequence (P30556 whole entry): T1 sequence (whole entry)

[8] = molecular target: T1, Type-1 angiotensin II receptor (Homo sapiens); experiment: Agonist activity at AT1R (unknown origin) extracted from HEK293 cell membrane coexpressing NLuc and Venus-miniG assessed as miniGq protein recruitment at 1 uM using NanoGlo as substrate preincubated for 30 mins followed by substrate addition for 10 mins by BRET assay; assay type: functional, cell membranes; conditions: filed as agonist, time 40.0 min
Homo sapiens = species on record: Homo sapiens; experiment: Selectivity index, ratio of Ki for binding affinity to human AT1R extracted from HEK293T cell membrane in presence of [125I][Sar1 Ile8]-angiotensin II by competitive radioligand binding assay to Ki for binding affinity to human AT2R extracted from HEK293T cell membrane in presence of [125I][Sar1 Ile8]-angiotensin II by competitive radioligand binding assay
[9] = molecular target: T1, Type-1 angiotensin II receptor (Homo sapiens); experiment: Agonist activity at Flag-tagged AT1R (unknown origin) extracted from HEK293 cell membrane co expressing YPET-ARRB2 assessed as beta-arrestin 2 recruitment using NanoGlo as substrate preincubated for 30 mins followed by substrate addition for 10 mins by BRET assay; assay type: functional, cell membranes
Cerebral artery [10] = experiment: Vaso-constriction activity in male wistar rat middle cerebral artery assessed as arterial contraction at 1 uM in presence of losartan; assay type: functional, tissue-based
[11] = molecular target: T1, Type-1 angiotensin II receptor (Homo sapiens); experiment: Agonist activity at Flag-tagged AT1R (unknown origin) extracted from HEK293T cell membrane co expressing YPET-ARRB1 assessed as beta-arrestin 1 recruitment using NanoGlo as substrate preincubated for 30 mins followed by substrate addition for 10 mins by BRET assay; assay type: functional, cell membranes; conditions: HEK293
[12] = molecular target: T1, Type-1 angiotensin II receptor (Homo sapiens); experiment: Induction of human NLuc-tagged AT1R (unknown origin) internalization in HEK293 cells co expressing venus-MP using NanoGlo as substrate preincubated for 30 mins followed by substrate addition for 10 mins by BRET assay; assay type: functional
Cerebral artery [13] = experiment: Vaso-constriction activity in male wistar rat middle cerebral artery assessed as arterial contraction; assay type: functional, tissue-based

Row | Compound | Activity [1] | Activity (Cerebral artery [3]) | Activity [9] | Activity [11] | Activity [12] | also measured
1 | CC[C@H](C)[C@H](NC(=O)[C@H](Cc1ccc(O)cc1)NC(=O)[C@@H](NC(=O)[C@H](CCCNC(=N)N)NC(=O)[C@H](CC(=O)O)NC(=O)CCOCCOCCNC(=O)CCCCCN1/C(=C\C=C\C2=[N+](C)c3ccccc3C2(C)C)C(C)(C)c2ccccc21)C(C)C)C(=O)N[C@@H](Cc1c[nH]cn1)C(=O)N1CCC[C@H]1C(=O)N[C@@H](Cc1ccccc1)C(=O)O | 0.068 | Active |  |  |  | Activity (Cerebral artery [2]): Active
2 | CC[C@H](C)[C@H](NC(=O)[C@H](Cc1ccc(O)cc1)NC(=O)[C@@H](NC(=O)[C@H](CCCNC(=N)N)NC(=O)CN(C)C(=O)CCOCCOCCNC(=O)CCCCCN1/C(=C\C=C\C2=[N+](C)c3ccccc3C2(C)C)C(C)(C)c2ccccc21)C(C)C)C(=O)N[C@@H](Cc1c[nH]cn1)C(=O)N1CCC[C@H]1C(=O)N[C@@H](C)C(=O)O | 0.058 | Active |  |  |  | Activity [4]: inactive; Activity [5]: inactive; Ki ([6]; read-out: Ki): 22.6 nM; Ki ([6]; read-out: pKi (converted)): 16.2 nM; pKi ([7]; hek293t): < 5; Ki ([7]; read-out: Ki): > 10000 nM; Activity [8]: Active; Ratio Ki (Homo sapiens): > 500
3 | CC[C@H](C)[C@H](NC(=O)[C@@H](NC(=O)C(CC(=O)O)NC(=O)[C@@H]1CCCN1C(=O)[C@H](Cc1c[nH]cn1)NC(=O)[C@H](Cc1ccccc1)NC(=O)[C@H](Cc1ccc(O)cc1)NC(=O)CCOCCOCCNC(=O)CCCCCN1/C(=C\C=C\C2=[N+](C)c3ccccc3C2(C)C)C(C)(C)c2ccccc21)C(C)C)C(=O)N[C@@H](CCCNC(=N)N)C(=O)O (some centres not stated) ({X1-PEG2}-YFHP[ξD]VIR-OH) | 0.064 |  | inactive | inactive | inactive | Activity (Cerebral artery [10]): Active
4 | H-YFHPDVIR-OH |  |  | inactive | inactive | inactive | Activity (Cerebral artery [13]): inactive
